# Reference: PubChem BioAssay (NCI)
#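 Method: 48-hour compound exposure of cells in 96-well plates, five concentrations, linear interpolation of endpoints. Here, GI50 denotes the concentration required for 50% inhibition of growth. The concentration for full growth arrest is given as TGI.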
# Experiments:
# Assay in all cases: growth of human tumour cells (NCI), 48 h
# [1] = tested on: LOX IMVI melanoma
# [2] = tested on: MDA-MB-435
# [3] = tested on: U251 CNS
# [4] = tested on: NCI-H23 lung
# [5] = tested on: NCI-H522 lung
# [6] = tested on: ACHN renal
# [7] = tested on: M14 melanoma
# [8] = tested on: MOLT-4 leukemia
# [9] = tested on: SR leukemia
# [10] = tested on: SF-268 CNS
# [11] = tested on: T-47D breast
# [12] = tested on: OVCAR-4 ovarian
# [13] = tested on: BT-549 breast
# [14] = tested on: COLO 205 colon
# [15] = tested on: RPMI-8226 leukemia
# [16] = tested on: PC-3 prostate
# [17] = tested on: A549 NSCLC
# [18] = tested on: SK-MEL-5 melanoma
# [19] = tested on: HT29 colon
# [20] = tested on: SK-OV-3 ovarian
# [21] = tested on: MALME-3M melanoma
# [22] = tested on: DU-145 prostate
# [23] = tested on: KM12 colon
# [24] = tested on: A498 renal
# [25] = tested on: RXF 393 renal
# [26] = tested on: HCC-2998 colon
# [27] = tested on: MDA-MB-231 breast
# [28] = tested on: TK-10 renal
# [29] = tested on: IGROV1 ovarian
# [30] = tested on: K-562 leukemia
# [31] = tested on: UACC-257 melanoma
# [32] = tested on: OVCAR-5 ovarian
# [33] = tested on: UACC-62 melanoma
# [34] = tested on: SW-620 colon
# [35] = tested on: CAKI-1 renal
# [36] = tested on: NCI/ADR-RES ovarian
# [37] = tested on: EKVX NSCLC
# [38] = tested on: CCRF-CEM leukemia
# [39] = tested on: SF-539 CNS
# [40] = tested on: SNB-19 CNS
# [41] = tested on: SN12C renal
# [42] = tested on: SK-MEL-2 melanoma
# [43] = tested on: HOP-62 NSCLC
# [44] = tested on: SF-295 CNS
# [45] = tested on: 786-0 renal
# [46] = tested on: NCI-H460 lung
# [47] = tested on: SNB-75 CNS
# [48] = tested on: OVCAR-8 ovarian
# [49] = tested on: UO-31 renal
# [50] = tested on: HCT-15 colon
# [51] = tested on: HL-60(TB) leukemia
# [52] = tested on: HCT-116 colon
# [53] = tested on: SK-MEL-28 melanoma
# [54] = tested on: HOP-92 NSCLC
# [55] = tested on: NCI-H226 lung
# [56] = tested on: MCF7 breast
# [57] = tested on: HS 578T breast
compound,measurement,setting,value
CCc1cc(OC(=O)N2CCC(N3CCCCC3)CC2)ccc1Nc1cc(-c2ccc(-n3cccn3)cc2)[nH]n1,GI50,[1],1660 nM
same,TGI,[1],3.17 µM
same,GI50,[2],1770 nM
same,TGI,[2],3.34 µM
same,GI50,[3],1580 nM
same,TGI,[3],2990 nM
same,GI50,[4],1820 nM
same,TGI,[4],3.9 µM
same,GI50,[5],1850 nM
same,TGI,[5],3.51 µM
same,GI50,[6],1720 nM
same,TGI,[6],3.1 µM
same,GI50,[7],1830 nM
same,TGI,[7],3.3 µM
same,GI50,[8],2160 nM
same,TGI,[8],11 µM
same,GI50,[9],1490 nM
same,TGI,[9],4.6 µM
same,GI50,[10],1820 nM
same,TGI,[10],3.73 µM
same,GI50,[11],1610 nM
same,TGI,[11],3.51 µM
same,GI50,[12],2220 nM
same,TGI,[12],5.34 µM
same,GI50,[13],1580 nM
same,TGI,[13],2950 nM
same,GI50,[14],1790 nM
same,TGI,[14],3.27 µM
same,GI50,[15],2030 nM
same,TGI,[15],5.62 µM
same,GI50,[16],1730 nM
same,TGI,[16],3.65 µM
same,GI50,[17],1210 nM
same,TGI,[17],2660 nM
same,GI50,[18],1720 nM
same,TGI,[18],3120 nM
same,GI50,[19],1270 nM
same,TGI,[19],2740 nM
same,GI50,[20],1930 nM
same,TGI,[20],3.47 µM
same,GI50,[21],1670 nM
same,TGI,[21],3.21 µM
same,GI50,[22],1910 nM
same,TGI,[22],4.17 µM
same,GI50,[23],2110 nM
same,TGI,[23],4.29 µM
same,GI50,[24],1400 nM
same,TGI,[24],2.81 µM
same,GI50,[25],1450 nM
same,TGI,[25],2890 nM
same,GI50,[26],1750 nM
same,TGI,[26],3.33 µM
same,GI50,[27],1900 nM
same,TGI,[27],3.57 µM
same,GI50,[28],1410 nM
same,TGI,[28],3.45 µM
same,GI50,[29],1930 nM
same,TGI,[29],4.04 µM
same,GI50,[30],1130 nM
same,TGI,[30],5.07 µM
same,GI50,[31],1820 nM
same,TGI,[31],3.44 µM
same,GI50,[32],1830 nM
same,TGI,[32],4.02 µM
same,GI50,[33],1920 nM
same,TGI,[33],3.96 µM
same,GI50,[34],1860 nM
same,TGI,[34],3.51 µM
same,GI50,[35],1550 nM
same,TGI,[35],3.45 µM
same,GI50,[36],2.94 µM
same,TGI,[36],9.89 µM
same,GI50,[37],2160 nM
same,TGI,[37],5.86 µM
same,GI50,[38],2950 nM
same,TGI,[38],21.6 µM
same,GI50,[39],1730 nM
same,TGI,[39],3.27 µM
same,GI50,[40],1950 nM
same,TGI,[40],4.11 µM
same,GI50,[41],1840 nM
same,TGI,[41],3.71 µM
same,GI50,[42],1830 nM
same,TGI,[42],3330 nM
same,GI50,[43],1840 nM
same,TGI,[43],3.7 µM
same,GI50,[44],1660 nM
same,TGI,[44],3.2 µM
same,GI50,[45],1550 nM
same,TGI,[45],2980 nM
same,GI50,[46],1580 nM
same,TGI,[46],3.16 µM
same,GI50,[47],1660 nM
same,TGI,[47],4.22 µM
same,GI50,[48],1800 nM
same,TGI,[48],3.83 µM
same,GI50,[49],1560 nM
same,TGI,[49],3.6 µM
same,GI50,[50],1360 nM
same,TGI,[50],2830 nM
same,GI50,[51],1710 nM
same,TGI,[51],4.52 µM
same,GI50,[52],1450 nM
same,TGI,[52],2830 nM
same,GI50,[53],1730 nM
same,TGI,[53],3.27 µM
same,GI50,[54],1450 nM
same,TGI,[54],3230 nM
O=[N+]([O-])c1ccc(-c2nnc(SCc3ccc(O)c4ncccc34)n2-c2ccccc2)cc1,GI50,[2],329 nM
same,TGI,[2],> 100 µM
same,GI50,[3],191 nM
same,TGI,[3],> 100000 nM
same,GI50,[4],433 nM
same,TGI,[4],> 100 µM
same,GI50,[5],253 nM
same,TGI,[5],> 29.6 µM
same,GI50,[6],2030 nM
same,TGI,[6],> 100 µM
same,GI50,[7],493 nM
same,TGI,[7],> 100 µM
same,GI50,[8],777 nM
same,TGI,[8],> 100 µM
same,GI50,[9],420 nM
same,TGI,[9],> 100 µM
same,GI50,[10],360 nM
same,TGI,[10],> 100 µM
same,GI50,[11],834 nM
same,TGI,[11],> 100 µM
same,GI50,[12],2120 nM
same,TGI,[12],> 100 µM
same,GI50,[55],4.3 µM
same,TGI,[55],> 100 µM
same,GI50,[13],175 nM
same,TGI,[13],> 100000 nM
same,GI50,[14],2510 nM
same,TGI,[14],7.02 µM
same,GI50,[15],695 nM
same,TGI,[15],> 100 µM
same,GI50,[16],114 nM
same,TGI,[16],> 100 µM
same,GI50,[17],410 nM
same,TGI,[17],> 100000 nM
same,GI50,[18],363 nM
same,TGI,[18],1970 nM
same,GI50,[19],3190 nM
same,TGI,[19],> 100000 nM
same,GI50,[20],1760 nM
same,TGI,[20],6.35 µM
same,GI50,[21],1170 nM
same,TGI,[21],8.45 µM
same,GI50,[22],442 nM
same,TGI,[22],> 100 µM
same,GI50,[23],585 nM
same,TGI,[23],> 100 µM
same,GI50,[24],2300 nM
same,TGI,[24],17 µM
same,GI50,[25],651 nM
same,TGI,[25],> 100000 nM
same,GI50,[26],1400 nM
same,TGI,[26],> 100 µM
same,GI50,[27],1050 nM
same,TGI,[27],4.69 µM
same,GI50,[28],2860 nM
same,TGI,[28],> 100 µM
same,GI50,[29],1560 nM
same,TGI,[29],> 100 µM
same,GI50,[30],447 nM
same,TGI,[30],> 100 µM
same,GI50,[31],1380 nM
same,TGI,[31],> 26.1 µM
same,GI50,[32],3350 nM
same,TGI,[32],> 100 µM
same,GI50,[33],2060 nM
same,TGI,[33],> 100 µM
same,GI50,[34],479 nM
same,TGI,[34],> 100 µM
same,GI50,[35],2410 nM
same,TGI,[35],> 100 µM
same,GI50,[36],7.35 µM
same,TGI,[36],> 100 µM
same,GI50,[37],1430 nM
same,TGI,[37],> 100 µM
same,GI50,[38],507 nM
same,TGI,[38],> 100 µM
same,GI50,[39],377 nM
same,TGI,[39],> 100 µM
same,GI50,[40],254 nM
same,TGI,[40],> 100 µM
same,GI50,[41],293 nM
same,TGI,[41],> 100 µM
same,GI50,[42],314 nM
same,TGI,[42],1820 nM
same,GI50,[43],990 nM
same,TGI,[43],> 100 µM
same,GI50,[44],444 nM
same,TGI,[44],5.04 µM
same,GI50,[45],1360 nM
same,TGI,[45],> 84200 nM
same,GI50,[46],229 nM
same,TGI,[46],> 100 µM
same,GI50,[56],325 nM
same,TGI,[56],> 100 µM
same,GI50,[48],240 nM
same,TGI,[48],> 100 µM
same,GI50,[49],1950 nM
same,TGI,[49],> 100 µM
same,GI50,[50],1050 nM
same,TGI,[50],> 100000 nM
same,GI50,[51],447 nM
same,TGI,[51],> 22.9 µM
same,GI50,[52],127 nM
same,TGI,[52],> 100000 nM
same,GI50,[53],715 nM
same,TGI,[53],> 100 µM
same,GI50,[54],69 nM
same,TGI,[54],598 nM
same,GI50,[57],312 nM
same,TGI,[57],> 100 µM
